Patent publication US20090221642A1, “MUSCARINIC RECEPTOR AGONISTS, COMPOSITIONS, METHODS OF TREATMENT THEREOF, AND PROCESSES FOR PREPARATION THEREOF-176” (AstraZeneca AB, priority 2008, published 2009)

molecular target: T1, hM1 (human Muscarinic receptor subtype 1) (Homo sapiens, UniProt P11229); assay: Human M1 calcium mobilization FLIPR assay; assay type: cell-based; conditions: hM1 expressed in CHO cells, intracellular Ca2+ release, read-out: hM1 EC50
T1 construct: expressed in transfected cells; host or cells: CHO cells (Chinese hamster ovary cells, ATCC)
T1 sequence (P11229 1-460): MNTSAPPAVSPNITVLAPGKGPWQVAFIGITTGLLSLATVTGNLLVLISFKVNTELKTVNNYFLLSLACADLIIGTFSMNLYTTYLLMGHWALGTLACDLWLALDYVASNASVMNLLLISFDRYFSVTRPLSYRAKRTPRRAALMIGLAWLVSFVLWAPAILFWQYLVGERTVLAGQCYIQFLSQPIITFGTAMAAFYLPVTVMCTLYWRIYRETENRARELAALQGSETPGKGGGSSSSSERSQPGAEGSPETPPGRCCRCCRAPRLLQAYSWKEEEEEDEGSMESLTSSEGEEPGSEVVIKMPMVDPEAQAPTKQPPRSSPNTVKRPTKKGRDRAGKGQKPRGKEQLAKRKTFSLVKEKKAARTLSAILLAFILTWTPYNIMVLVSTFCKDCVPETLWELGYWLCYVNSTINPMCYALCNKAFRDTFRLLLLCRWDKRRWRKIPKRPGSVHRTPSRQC
Description: Human M1, rat M1, human M3 and human M5 Calcium Mobilization FLIPR™ Assay
The compound activity in the present invention (EC50 or IC50) is measured using a 384 plate-based imaging assay that monitors drug induced intracellular Ca^2+ release in whole cells. Activation of hM1 (human Muscarinic receptor subtype 1, gene bank access NM_000738), rM1 (rat Muscarinic receptor subtype 1, gene bank access NM_080773), hM3 (human Muscarinic receptor subtype 3, gene bank access NM_000740NM_000740) and hM5 (human Muscarinic receptor subtype 5, gene bank access NM_0121258), receptors expressed in CHO cells (Chinese hamster ovary cells, ATCC) is quantified in a Molecular Devices FLIPR II™ instrument as an increase in fluorescent signal. Inhibition of hM3 and hM5 by compounds is determined by the decrease in fluorescent signal in response to 2 nM acetylcholine activation.
Prior to experiment, the cell culture medium is removed from the plates by inversion. […] Plates are incubated at 37° C. for 60 minutes prior to start the experiment. The incubation is terminated by washing the cells four times in assay buffer, leaving a residual 25 μl buffer per well. Cell plates are then transferred to the FLIPR, ready for compound additions.
The day of experiment, acetylcholine and compounds are diluted in assay buffer in three-fold concentration range (10 points serial dilution) for addition by FLIPR instrument. For all calcium assays, a baseline reading is taken for 10 seconds followed by the addition of 12.5 μl of compounds, resulting in a total well volume of 37.5 μl. Data is collected every second for 60 pictures and then every 6 seconds for 20 pictures prior to the addition of agonist. For hM3 and hM5, before agonist addition, a second baseline reading is taken for 10 seconds followed by the addition of 12.5 μl of agonist or buffer, producing a final volume of 50 μl. After agonist stimulation, the FLIPR continues to collect data every second for 60 pictures and then every 6 seconds for 20 pictures. The fluorescence emission is read using filter 1 (emission 510-570 nm) by the FLIPR on board CCD camera.
Calcium mobilization output data are calculated as the maximal relative fluorescence unit (RFU) minus the minimal value for both compound and agonist reading frame (except for hM1 and rM1 using only the maximal RFU). Data are analyzed using sigmoidal fits of a non-linear curve-fitting program (XLfit version 4.2.2 Excel add-in version 4.2.2 build 18 math 1Q version 2.1.2 build 18). All pEC50 and plC50 values are reported as arithmetic means ±standard error of mean of ‘n’ independent experiments.

| SMILES | EC50 |
| --- | --- |
| CCOC(=O)N1CCC(C)(N2CCC(N3C(=O)Cc4c3cc(F)cc4C(C)(C)C)CC2)C1 (stereo not drawn) [Example 85, ethyl 3-(4-(4-tert-butyl-6-fluoro-2-oxoindolin-1-yl)piperidin-1-yl)-3-methylpyrrolidine-1-carboxylate] | 1470 nM |
| COC(=O)N1CCC(C)(N2CCC(N3C(=O)Cc4c3cc(C)cc4C(C)(C)C)CC2)C1 (stereo not drawn) [Example 86, methyl 3-(4-(4-tert-butyl-6-methyl-2-oxoindolin-1-yl)piperidin-1-yl)-3-methylpyrrolidine-1-carboxylate] | 1420 nM |
| CCOC(=O)N1CCC(C)(N2CCC(N3C(=O)C4(CC4)c4ccc(F)cc43)CC2)C1 (stereo not drawn) [Example 87, ethyl 3-(4-(6′-fluoro-2′-oxospiro[cyclopropane-1,3′-indoline]-1′-yl)piperidin-1-yl)-3-methylpyrrolidine-1-carboxylate] | 125 nM |
